Columns and labels:
AZD1390 = compound: CC(C)n1c(=O)n(C)c2cnc3cc(F)c(-c4ccc(OCCCN5CCCCC5)nc4)cc3c21 [AZD1390]; conditions: max 0.3 µM
Outline: (§1)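 Cancer cell lines were seeded into 1536-well plates in 7.5 μl medium (DMEM/F12 or RPMI, 10% FBS), held 24 hours at 37°C and 5% CO2, and dosed for 72 hours with final DMSO typically 0.2%. Luminescence from CellTiter-Glo 2.0, scaled between blank-well and DMSO-well means, served as viability. The single-agent IC50 was obtained from dose-response fits with a non-linear mixed effects model, each fit being a two-parameter logistic curve.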

Gefitinib = compound: COc1cc2ncnc(Nc3ccc(F)c(Cl)c3)c2cc1OCCCN1CCOCC1 [Gefitinib]; conditions: max 10 µM
Outline: as §1

Trametinib = compound: CC(=O)Nc1cccc(-n2c(=O)n(C3CC3)c(=O)c3c(Nc4ccc(I)cc4F)n(C)c(=O)c(C)c32)c1 [Trametinib]; conditions: max 1 µM
Outline: as §1

Alisertib = compound: COc1cc(Nc2ncc3c(n2)-c2ccc(Cl)cc2C(c2c(F)cccc2OC)=NC3)ccc1C(=O)O [Alisertib]; conditions: max 10 µM
Outline: as §1

AZD8186 = compound: C[C@@H](Nc1cc(F)cc(F)c1)c1cc(C(=O)N(C)C)cc2c(=O)cc(N3CCOCC3)oc12 [AZD8186]; conditions: max 3 µM
Outline: as §1

Selumetinib = compound: Cn1cnc2c(F)c(Nc3ccc(Br)cc3Cl)c(C(=O)NOCCO)cc21 [Selumetinib]; conditions: max 10 µM
Outline: as §1

AZD7648 = compound: Cc1cc2ncnn2cc1Nc1ncc2c(n1)n(C1CCOCC1)c(=O)n2C [AZD7648]; conditions: max 10 µM
Outline: as §1

AZD4320 = compound: CN(CC[C@H](CSC1=CC=CC=C1)NC2=C(C=C(C=C2)S(=O)(=O)NC(=O)C3=CC=C(C=C3)N4CCC(CC4)[C@H](C5=CC=CC=C5C6=CC=C(C=C6)Cl)O)S(=O)(=O)C(F)(F)F)CCO [AZD4320]; conditions: max 1 µM
Outline: as §1

AZD5991 = compound: Cc1c2c(nn1C)CSCc1cc(n(C)n1)CSc1cc(c3ccccc3c1)OCCCc1c(C(=O)O)n(C)c3c-2c(Cl)ccc13 [AZD5991]; conditions: max 1 µM
Outline: as §1

SN-38 = compound: CCc1c2c(nc3ccc(O)cc13)-c1cc3c(c(=O)n1C2)COC(=O)[C@]3(O)CC [SN-38]; conditions: max 0.3 µM
Outline: as §1

SG3199 = compound: CC1=CN2[C@@H](C1)C=NC3=CC(=C(C=C3C2=O)OC)OCCCCCOC4=C(C=C5C(=C4)N=C[C@@H]6CC(=CN6C5=O)C)OC [SG3199]; conditions: max 0.001 µM
Outline: as §1

Venetoclax = compound: CC1(C)CCC(CN2CCN(c3ccc(C(=O)NS(=O)(=O)c4ccc(NCC5CCOCC5)c([N+](=O)[O-])c4)c(Oc4cnc5[nH]ccc5c4)c3)CC2)=C(c2ccc(Cl)cc2)C1 [Venetoclax]; conditions: max 1 µM
Outline: as §1

Lapatinib = compound: CS(=O)(=O)CCNCc1ccc(-c2ccc3ncnc(Nc4ccc(OCc5cccc(F)c5)c(Cl)c4)c3c2)o1 [Lapatinib]; conditions: max 10 µM
Outline: as §1

Doxorubicin = compound: COc1cccc2c1C(=O)c1c(O)c3c(c(O)c1C2=O)C[C@@](O)(C(=O)CO)C[C@@H]3O[C@H]1C[C@H](N)[C@H](O)[C@H](C)O1 [Doxorubicin]; conditions: max 1 µM
Outline: as §1

Palbociclib = compound: CC(=O)c1c(C)c2cnc(Nc3ccc(N4CCNCC4)cn3)nc2n(C2CCCC2)c1=O [Palbociclib]; conditions: max 10 µM
Outline: as §1

Capivasertib = compound: C1CN(CCC1(C(=O)N[C@@H](CCO)C2=CC=C(C=C2)Cl)N)C3=NC=NC4=C3C=CN4 [Capivasertib]; conditions: max 10 µM
Outline: as §1

Olaparib = compound: O=C(c1cc(Cc2n[nH]c(=O)c3ccccc23)ccc1F)N1CCN(C(=O)C2CC2)CC1 [Olaparib]; conditions: max 10 µM
Outline: as §1

AZD5153 = compound: COc1nnc2ccc(N3CCC(c4ccc(OCCN5CCN(C)C(=O)[C@H]5C)cc4)CC3)nn12 [AZD5153]; conditions: max 1 µM
Outline: as §1

Prexasertib = compound: COc1cccc(OCCCN)c1-c1cc(Nc2cnc(C#N)cn2)n[nH]1 [Prexasertib]; conditions: max 1 µM
Outline: as §1

Dasatinib = compound: CC1=C(C(=CC=C1)Cl)NC(=O)C2=CN=C(S2)NC3=CC(=NC(=N3)C)N4CCN(CC4)CCO [Dasatinib]; conditions: max 2 µM
Outline: as §1

Savolitinib = compound: C[C@@H](c1ccc2nccn2c1)n1nnc2ncc(-c3cnn(C)c3)nc21 [Savolitinib]; conditions: max 1 µM
Outline: as §1

AZD6738 = compound: C[C@@H]1COCCN1C2=NC(=NC(=C2)C3(CC3)[S@](=N)(=O)C)C4=C5C=CNC5=NC=C4 [AZD6738]; conditions: max 10 µM
Outline: as §1

MK-2206 = compound: NC1(c2ccc(-c3nc4ccn5c(=O)[nH]nc5c4cc3-c3ccccc3)cc2)CCC1 [MK-2206]; conditions: max 10 µM
Outline: as §1

Taselisib = compound: Cc1nc(-c2cn3c(n2)-c2ccc(-c4cnn(C(C)(C)C(N)=O)c4)cc2OCC3)n(C(C)C)n1 [Taselisib]; conditions: max 10 µM
Outline: as §1

AZD2811 = compound: CCN(CCO)CCCOc1ccc2c(Nc3cc(CC(=O)Nc4cccc(F)c4)[nH]n3)ncnc2c1 [AZD2811]; conditions: max 1 µM
Outline: as §1

AZD1775 = compound: C=CCn1c(=O)c2cnc(Nc3ccc(N4CCN(C)CC4)cc3)nc2n1-c1cccc(C(C)(C)O)n1 [AZD1775]; conditions: max 3 µM
Outline: as §1

Crizotinib = compound: C[C@@H](Oc1cc(-c2cnn(C3CCNCC3)c2)cnc1N)c1c(Cl)ccc(F)c1Cl [Crizotinib]; conditions: max 10 µM
Outline: as §1

AZD0156 = compound: CN(C)CCCOc1ccc(-c2ccc3ncc4c(c3c2)n(C2CCOCC2)c(=O)n4C)cn1 [AZD0156]; conditions: max 3 µM
Outline: as §1

Row | Cell Line | IC50, cell viability 72 h (AZD1390) [µM] | IC50, cell viability 72 h (Gefitinib) [µM] | IC50, cell viability 72 h (Trametinib) [µM] | IC50, cell viability 72 h (Alisertib) [µM] | IC50, cell viability 72 h (AZD8186) [µM] | IC50, cell viability 72 h (Selumetinib) [µM] | IC50, cell viability 72 h (AZD7648) [µM] | IC50, cell viability 72 h (AZD4320) [µM] | IC50, cell viability 72 h (AZD5991) [µM] | IC50, cell viability 72 h (SN-38) [µM] | IC50, cell viability 72 h (SG3199) [µM] | IC50, cell viability 72 h (Venetoclax) [µM] | IC50, cell viability 72 h (Lapatinib) [µM] | IC50, cell viability 72 h (Doxorubicin) [µM] | IC50, cell viability 72 h (Palbociclib) [µM] | IC50, cell viability 72 h (Capivasertib) [µM] | IC50, cell viability 72 h (Olaparib) [µM] | IC50, cell viability 72 h (AZD5153) [µM] | IC50, cell viability 72 h (Prexasertib) [µM] | IC50, cell viability 72 h (Dasatinib) [µM] | IC50, cell viability 72 h (Savolitinib) [µM] | IC50, cell viability 72 h (AZD6738) [µM] | IC50, cell viability 72 h (MK-2206) [µM] | IC50, cell viability 72 h (Taselisib) [µM] | IC50, cell viability 72 h (AZD2811) [µM] | IC50, cell viability 72 h (AZD1775) [µM] | IC50, cell viability 72 h (Crizotinib) [µM] | IC50, cell viability 72 h (AZD0156) [µM]
1 | HOP-92 (Non-Small Cell Lung Carcinoma) | > 0.3 | > 10 | 0.139 | > 10 | > 3 | > 10 | > 10 | 0.14 | > 1 | 0.109 | > 0.001 | > 1 | > 10 | > 1 | > 10 | > 10 | > 10 | > 1 | 0.134 | > 2 | > 1 | > 10 | > 10 | 6.71 | > 1 | > 3 | > 10 | > 3
2 | 647-V (Bladder Carcinoma) | > 0.3 | > 10 | > 1 | > 10 | > 3 | > 10 | > 10 | > 1 | 0.961 | 0.00235 | > 0.001 | > 1 | > 10 | 0.24 | > 10 | > 10 | > 10 | > 1 | 0.174 | > 2 | > 1 | > 10 |  | > 10 | > 1 | 0.812 | > 10 | > 3
3 | GDM-1 (Acute Myeloid Leukemia) | > 0.3 | > 10 | > 1 | 0.123 | 1.94 | > 10 | 5.19 | 0.0834 | > 1 | 0.00415 | > 0.001 | 0.392 | > 10 | 0.326 | 8.09 | 8.68 | > 10 | 0.0648 | 0.0402 | 0.00937 | > 1 | 7.15 |  | 0.121 | 0.0656 | 0.435 | 1.16 | > 3
4 | U-118-MG (Low Grade Glioma) | > 0.3 | > 10 | > 1 | > 10 | > 3 | > 10 | > 10 | > 1 | > 1 | 0.0141 | > 0.001 | > 1 | > 10 | > 1 | > 10 | 8.88 | > 10 | > 1 | 0.188 | > 2 | > 1 | > 10 |  | 6.1 | > 1 | 2.74 | > 10 | > 3
5 | MES-SA (Other Solid Carcinomas) | > 0.3 | > 10 | > 1 | 0.856 | > 3 | > 10 | > 10 | > 1 | > 1 | 0.0282 | > 0.001 | > 1 | > 10 | 0.268 | > 10 | > 10 | > 10 | > 1 | 0.0801 | > 2 | > 1 | > 10 |  | 1.18 | > 1 | 0.707 | > 10 | > 3
6 | EFM-192A (Breast Carcinoma) | > 0.3 | > 10 | > 1 | > 10 | > 3 | > 10 | > 10 | > 1 | 0.706 | > 0.3 | > 0.001 | > 1 | 1.36 | > 1 | > 10 | > 10 | > 10 | > 1 | > 1 | > 2 | > 1 | > 10 |  | 0.475 | > 1 | > 3 | > 10 | > 3
7 | HCC-827 (Lung Adenocarcinoma) | > 0.3 | 0.0842 | > 1 | > 10 | > 3 | > 10 | > 10 | > 1 | > 1 | > 0.3 | > 0.001 | > 1 | 3 | > 1 | > 10 | > 10 | > 10 | > 1 | 0.465 | 0.13 | > 1 | > 10 |  | 8.54 | > 1 | > 3 | > 10 | > 3
8 | ETK-1 (Biliary Tract Carcinoma) | > 0.3 | > 10 | > 1 | 6.57 | > 3 | > 10 | > 10 | > 1 | > 1 | 0.227 | > 0.001 | > 1 | 6.78 | > 1 | > 10 | > 10 | > 10 | > 1 | 0.563 | 0.58 | > 1 | 6.85 | > 10 | 3.33 | > 1 | 1.02 | > 10 | > 3
